Source: patent US10364245B2 (CHIESI FARMACEUTICI S.p.A., priority 2017, dated 2019)

Columns and labels:
[1] = test system: Peripheral Blood Mononuclear Cells (PBMCs), TNFα release; assay: LPS-stimulated PBMC TNFα release assay; assay type: cell-based; settings: human PBMC, LPS (10 ng/ml), 18 h, compound 1 h before LPS; read-out: LPS-stimulated PBMC TNFα release inhibition
Protocol: LPS-Stimulated PBMC TNFα Release Assay
Peripheral Blood Mononuclear Cells (PBMCs) were isolated from healthy human volunteer blood using a standard density gradient centrifugation technique. Citrated blood was placed onto Histopaque™ and centrifuged. The PBMCs were removed from the density gradient interface and washed in phosphate buffered saline (PBS). The PBMCs were suspended in RPMI 1640 medium (without serum), dispensed into a 96-well plate and incubated at 37° C. for 3 h in a humidified incubator. After incubation, the medium was replaced (with medium containing 1% foetal bovine serum) and the plate incubated at 37° C., for 1 h, in the presence of test compound or the appropriate vehicle. LPS (10 ng/ml), or an appropriate vehicle control, was then added to the cells and the plate returned to the incubator for 18 h. Cell-free supernatants were removed and assayed for TNFα levels using MSD plates on the Sector Imager 6000 (MesoScale).
A dose response curve to each test compound was performed and the effect of compound in each experiment was expressed as a percentage inhibition of the control TNFα release. Dose response curves were plotted and compound potency (IC50) was determined. Compounds were tested in at least three separate experiments.

[2] = molecular target: T1, p38 alpha (Homo sapiens, UniProt Q16539); assay: P38 alpha enzyme inhibition assay (Alphascreen kinase activity assay); assay type: biochemical; settings: 100 pM p38 alpha, 2 hours preincubation at 25° C., 250 μM ATP, ATF-2 fusion protein; read-out: p38α inhibition
T1 construct: purchased Invitrogen PV3304
Protocol: P38 Alpha Enzyme Inhibition Assay
The inhibitory activity of compounds was determined using an Alphascreen® (Perkin Elmer) based kinase activity assay. Kinase reactions consisted of 25 mM HEPES pH 7.5, 10 mM MgCl2, 100 μM Na3VO4, 2 mM DTT, 0.05 mg/ml Tween 20, 100 pM p38 alpha (Invitrogen, PV3304), 1% DMSO and 0.3 μg/ml ATF-2 fusion protein (New England Biolabs, 9224). Compounds were incubated under these conditions for 2 hours, at 25° C., prior to the initiation of the kinase activity by the addition of the 250 μM ATP. Reaction volumes were 20 μL. After 1 hr at 25° C. reactions were stopped by the adding 10 μL of 25 mM HEPES pH 7.5 containing 62.5 mM EDTA, 0.05% Triton X-100, 10% BSA and 0.83 ng/uL anti-phospho-ATF2 antibody (Abcam, ab28812). Detection was performed by measuring luminescence following the addition of Alphascreen Donor beads (Perkin Elmer 6765300) and Protein A Alphascreen Acceptor beads (Perkin Elmer 6760137), both at a final concentration of 20 ug/ml. IC50 values were determined from concentration-response curves.

T1 sequence (Q16539 whole entry, the tested form may be a part): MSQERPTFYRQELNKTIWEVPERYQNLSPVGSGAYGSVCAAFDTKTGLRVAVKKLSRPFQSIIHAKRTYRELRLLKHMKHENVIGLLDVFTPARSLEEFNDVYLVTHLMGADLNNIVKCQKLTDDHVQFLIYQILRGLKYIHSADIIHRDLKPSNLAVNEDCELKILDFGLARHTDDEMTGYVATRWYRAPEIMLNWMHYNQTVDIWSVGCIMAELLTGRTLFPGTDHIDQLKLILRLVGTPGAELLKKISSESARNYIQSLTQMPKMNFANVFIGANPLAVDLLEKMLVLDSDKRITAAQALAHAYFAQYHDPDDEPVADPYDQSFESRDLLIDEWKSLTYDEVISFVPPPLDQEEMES

CC(C)c1nnc2ccc(O[C@@H]3CC[C@H](NC(=O)Nc4cc(C(C)(C)C)nc(C(=O)NCCN5CCOCC5)n4)c4ccccc43)cn12 [Example 66, 4-(tert-butyl)-6-(3-((1S,4R)-4-((3-isopropyl-[1,2,4]triazolo[4,3-a]pyridin-6-yl)oxy)-1,2,3,4-tetrahydronaphthalen-1-yl)ureido)-N-(2-morpholinoethyl)pyrimidine-2-carboxamide]
IC50 [1]: > 5 nM | IC50 [2]: 1 to 10 nM

CC[C@H](C)c1nnc2ccc(O[C@@H]3CC[C@H](NC(=O)Nc4cc(C(C)(C)C)nc(C(=O)NCCN5CCOCC5)n4)c4ccccc43)cn12 [Example 102, 4-(tert-butyl)-6-(3-((1S,4R)-4-((3-((S)-sec-butyl)-[1,2,4]triazolo[4,3-a]pyridin-6-yl)oxy)-1,2,3,4-tetrahydronaphthalen-1-yl)ureido)-N-(2-morpholinoethyl)-pyrimidine-2-carboxamide]
IC50 [1]: > 5 nM | IC50 [2]: < 1 nM

CN1CC(C(=O)NCc2nc(NC(=O)N[C@H]3CC[C@@H](Oc4ccc5nnc(C(C)(C)C)n5c4)c4ccccc43)cc(C(C)(C)C)n2)C1 [Example 126, N-((4-(tert-butyl)-6-(3-((1S,4R)-4-((3-(tert-butyl)-[1,2,4]triazolo[4,3-a]pyridin-6-yl)oxy)-1,2,3,4-tetrahydronaphthalen-1-yl)ureido)pyrimidin-2-yl)methyl)-1-methylazetidine-3-carboxamide]
IC50 [1]: > 5 nM | IC50 [2]: < 1 nM

CCC(CC)c1nnc2ccc(O[C@@H]3CC[C@H](NC(=O)Nc4cc(C(C)(C)C)nc(C(=O)NCCO)n4)c4ccccc43)cn12 [Example 72, 4-(tert-butyl)-N-(2-hydroxyethyl)-6-(3-((1S,4R)-4-((3-(pentan-3-yl)-[1,2,4]triazolo[4,3-a]pyridin-6-yl)oxy)-1,2,3,4-tetrahydronaphthalen-1-yl)ureido)pyrimidine-2-carboxamide]
IC50 [1]: 1 to 5 nM | IC50 [2]: < 1 nM

CN(C)CCCNC(=O)c1nc(NC(=O)N[C@H]2CC[C@@H](Oc3ccc4nnc(C(C)(C)C)n4c3)c3ccccc32)cc(C(C)(C)C)n1 [Example 118, 4-(tert-butyl)-6-(3-((1S,4R)-4-((3-(tert-butyl)-[1,2,4]triazolo[4,3-a]pyridin-6-yl)oxy)-1,2,3,4-tetrahydronaphthalen-1-yl)ureido)-N-(3-(dimethylamino)-propyl)pyrimidine-2-carboxamide]
IC50 [1]: 1 to 5 nM | IC50 [2]: 1 to 10 nM

CCC(C)(C)c1nnc2ccc(O[C@@H]3CC[C@H](NC(=O)Nc4cc(C(C)(C)C)nc(C(=O)NCCN5CCOCC5)n4)c4ccccc43)cn12 [Example 131, 4-(tert-butyl)-N-(2-morpholinoethyl)-6-(3-((1S,4R)-4-((3-(tert-pentyl)-[1,2,4]triazolo[4,3-a]pyridin-6-yl)oxy)-1,2,3,4-tetrahydronaphthalen-1-yl)ureido)pyrimidine-2-carboxamide]
IC50 [1]: 1 to 5 nM | IC50 [2]: < 1 nM

CC(C)Cc1nnc2ccc(O[C@@H]3CC[C@H](NC(=O)Nc4cc(C(C)(C)C)nc(C(=O)NCCO)n4)c4ccccc43)cn12 [Example 60, 4-(tert-Butyl)-N-(2-hydroxyethyl)-6-(3-((1S,4R)-4-((3-isobutyl-[1,2,4]triazolo[4,3-a]pyridin-6-yl)oxy)-1,2,3,4-tetrahydronaphthalen-1-yl)ureido)pyrimidine-2-carboxamide]
IC50 [1]: 1 to 5 nM | IC50 [2]: < 1 nM

COCC(C)(C)c1nnc2ccc(O[C@@H]3CC[C@H](NC(=O)Nc4cc(C(C)(C)C)nc(C(=O)NCC(C)(C)N5CC(OC)C5)n4)c4ccccc43)cn12 [Example 171, 4-(tert-butyl)-6-(3-((1S,4R)-4-((3-(1-methoxy-2-methylpropan-2-yl)-[1,2,4]triazolo[4,3-a]pyridin-6-yl)oxy)-1,2,3,4-tetrahydronaphthalen-1-yl)ureido)-N-(2-(3-methoxyazetidin-1-yl)-2-methylpropyl)pyrimidine-2-carboxamide]
IC50 [1]: 1 to 5 nM | IC50 [2]: 1 to 10 nM

CC(C)(C)c1cc(NC(=O)N[C@H]2CC[C@@H](Oc3ccc4nnc(C(C)(C)C)n4c3)c3ccccc32)nc(C(=O)NCCN2CCCOCC2)n1 [Example 89, N-(2-(1,4-oxazepan-4-yl)ethyl)-4-(tert-butyl)-6-(3-((1S,4R)-4-((3-(tert-butyl)-[1,2,4]triazolo[4,3-a]pyridin-6-yl)oxy)-1,2,3,4-tetrahydronaphthalen-1-yl)ureido)pyrimidine-2-carboxamide]
IC50 [1]: 1 to 5 nM | IC50 [2]: 1 to 10 nM

CC(C)(C)c1cc(NC(=O)N[C@H]2CC[C@@H](Oc3ccc4nnc(C(C)(C)C)n4c3)c3ccccc32)nc(CNC(=O)CCN2CCOCC2)n1 [Example 103, N-((4-(tert-butyl)-6-(3-((1S,4R)-4-((3-(tert-butyl)-[1,2,4]-triazolo[4,3-a]pyridin-6-yl)oxy)-1,2,3,4-tetrahydronaphthalen-1-yl)ureido)pyrimidin-2-yl)methyl)-3-morpholinopropanamide]
IC50 [1]: > 5 nM | IC50 [2]: 1 to 10 nM

COCCN(C)CCNC(=O)c1nc(NC(=O)N[C@H]2CC[C@@H](Oc3ccc4nnc(C(C)C)n4c3)c3ccccc32)cc(C(C)(C)C)n1 [Example 70, 4-(tert-butyl)-6-(3-((1S,4R)-4-((3-isopropyl-[1,2,4]triazolo[4,3-a]pyridin-6-yl)oxy)-1,2,3,4-tetrahydronaphthalen-1-yl)ureido)-N-(2-((2-methoxyethyl)(methyl)amino)ethyl)pyrimidine-2-carboxamide]
IC50 [1]: > 5 nM | IC50 [2]: 1 to 10 nM

CC(=O)OCc1nc(NC(=O)N[C@H]2CC[C@@H](Oc3ccc4nnc([C@]5(C)CCCN5C)n4c3)c3ccccc32)cc(C(C)(C)C)n1 [Example 26, (4-(tert-Butyl)-6-(3-((1S,4R)-4-((3-((S)-1,2-dimethylpyrrolidin-2-yl)-[1,2,4]triazolo[4,3-a]pyridin-6-yl)oxy)-1,2,3,4-tetrahydronaphthalen-1-yl)ureido)pyrimidin-2-yl)methyl acetate]
IC50 [1]: 1 to 5 nM | IC50 [2]: 1 to 10 nM

Cc1nc(NC(=O)N[C@H]2CC[C@@H](Oc3ccc4nnc([C@]5(C)CCCN5C)n4c3)c3ccccc32)cc(C(C)(C)C)n1 [Example 40, 1-(6-(tert-Butyl)-2-methylpyrimidin-4-yl)-3-((1S,4R)-4-((3-((S)-1,2-dimethylpyrrolidin-2-yl)-[1,2,4]triazolo[4,3-a]pyridin-6-yl)oxy)-1,2,3,4-tetrahydronaphthalen-1-yl)urea]
IC50 [1]: 1 to 5 nM | IC50 [2]: < 1 nM

CN1CCC(NC(=O)c2nc(NC(=O)N[C@H]3CC[C@@H](Oc4ccc5nnc(C(C)(C)C)n5c4)c4ccccc43)cc(C(C)(C)C)n2)CC1 [Example 134, 4-(tert-butyl)-6-(3-((1S,4R)-4-((3-(tert-butyl)-[1,2,4]triazolo[4,3-a]pyridin-6-yl)oxy)-1,2,3,4-tetrahydronaphthalen-1-yl)ureido)-N-(1-methylpiperidin-4-yl)pyrimidine-2-carboxamide]
IC50 [1]: > 5 nM | IC50 [2]: 1 to 10 nM

CN1CCN(c2nc(NC(=O)N[C@H]3CC[C@@H](Oc4ccc5nnc([C@]6(C)CCCN6C)n5c4)c4ccccc43)cc(C(C)(C)C)n2)CC1 [Example 31, 1-(6-(tert-Butyl)-2-(4-methylpiperazin-1-yl)pyrimidin-4-yl)-3-((1S,4R)-4-((3-((S)-1,2-dimethylpyrrolidin-2-yl)-[1,2,4]triazolo[4,3-a]pyridin-6-yl)oxy)-1,2,3,4-tetrahydronaphthalen-1-yl)urea]
IC50 [1]: > 5 nM

COC1CN(C(C)(C)CNC(=O)c2nc(NC(=O)N[C@H]3CC[C@@H](Oc4ccc5nnc(C(C)(C)C)n5c4)c4ccccc43)cc(C(C)(C)C)n2)C1 [Example 170, 4-(tert-butyl)-6-(3-((1S,4R)-4-((3-(tert-butyl)-[1,2,4]triazolo[4,3-a]pyridin-6-yl)oxy)-1,2,3,4-tetrahydronaphthalen-1-yl)ureido)-N-(2-(3-methoxyazetidin-1-yl)-2-methylpropyl)pyrimidine-2-carboxamide]
IC50 [2]: 1 to 10 nM

CCN(C)C(C)(C)CNC(=O)c1nc(NC(=O)N[C@H]2CC[C@@H](Oc3ccc4nnc(C(C)(C)C)n4c3)c3ccccc32)cc(C(C)(C)C)n1 [Example 148, 4-(tert-butyl)-6-(3-((1S,4R)-4-((3-(tert-butyl)-[1,2,4]triazolo[4,3-a]pyridin-6-yl)oxy)-1,2,3,4-tetrahydronaphthalen-1-yl)ureido)-N-(2-(ethyl(methyl)amino)-2-methylpropyl)pyrimidine-2-carboxamide]
IC50 [2]: 1 to 10 nM
